From article PMC7581279 (Journal of medicinal chemistry, 2013)

biological target: recombinant HIV-1 IN ST activity (Human immunodeficiency virus type 1 group M subtype B, UniProt P04585); experiment: biochemical; settings: not given

| SMILES | IC50 [µM] |
| --- | --- |
| CCOC(=O)C(=O)CC(=O)/C=C/c1cccn1Cc1ccc(Cl)cc1Cl [7w, 6-[1-(2,4-Dichlorophenyl)methyl-1H-pyrrol-2-yl]-2,4-dioxo-5-hexenoic Acid Ethyl Ester] | > 111 |
| CCOC(=O)C(=O)CC(=O)/C=C/c1cccn1Cc1ccc(C#N)cc1 [7l, 6-[1-(4-Cyanophenyl)methyl-1H-pyrrol-2-yl]-2,4-dioxo-5-hexenoic Acid Ethyl Ester] | > 111 |

tested on: RT-associated DNA polymerase function; experiment: not given; settings: cited from earlier work

| SMILES | activity against RT-associated DNA polymerase function |
| --- | --- |
| CCOC(=O)C(=O)CC(=O)/C=C/c1cccn1Cc1ccc(F)cc1 [7g, 6-[1-(4-Fluorophenyl)methyl-1H-pyrrol-2-yl]-2,4-dioxo-5-hexenoic Acid Ethyl Ester] | inactive |

tested on: HIV-1 (IIIB) in MT-4 cells; experiment: not given; settings: HIV-1-induced cytopathic effect in MT-4 cells

| SMILES | activity in the CPE assay |
| --- | --- |
| O=C(/C=C/c1cccn1Cc1ccc(F)cc1)CC(=O)C(=O)O [8g, 6-[1-(4-Fluorophenyl)methyl-1H-pyrrol-2-yl]-2,4-dioxo-5-hexenoic Acid] | antiviral |
| CCOC(=O)C(=O)CC(=O)/C=C/c1cccn1Cc1cccc(F)c1 [7f, 6-[1-(3-Fluorophenyl)methyl-1H-pyrrol-2-yl]-2,4-dioxo-5-hexenoic Acid Ethyl Ester] | antiviral |
| O=C(/C=C/c1cccn1Cc1ccccc1)CC(=O)C(=O)O [8a, 6-[1-(Phenyl)methyl-1H-pyrrol-2-yl]-2,4-dioxo-5-hexenoic Acid] | antiviral |
| O=C(/C=C/c1cccn1Cc1ccc(Cl)cc1)CC(=O)C(=O)O [8i, 6-[1-(4-Chlorophenyl)methyl-1H-pyrrol-2-yl]-2,4-dioxo-5-hexenoic Acid] | inactive |
| CCOC(=O)C(=O)CC(=O)/C=C/c1cccn1Cc1ccccc1 [7a, 6-[1-(Phenyl)methyl-1H-pyrrol-2-yl]-2,4-dioxo-5-hexenoic Acid Ethyl Ester] | antiviral |
| CCOC(=O)C(=O)CC(=O)/C=C/c1cccn1Cc1ccccc1F [7e, 6-[1-(2-Fluorophenyl)methyl-1H-pyrrol-2-yl]-2,4-dioxo-5-hexenoic Acid Ethyl Ester] | antiviral |
| CCOC(=O)C(=O)CC(=O)/C=C/c1cccn1Cc1ccc(F)cc1 [7g, 6-[1-(4-Fluorophenyl)methyl-1H-pyrrol-2-yl]-2,4-dioxo-5-hexenoic Acid Ethyl Ester] | antiviral |

biological target: HIV-1 RT-associated RNase H activity (Human immunodeficiency virus type 1 group M subtype B, UniProt P04585); experiment: biochemical; settings: not given

| SMILES | IC50 [µM] |
| --- | --- |
| CCOC(=O)C(=O)CC(=O)/C=C/c1cccn1Cc1ccccc1OC [7m, 6-[1-(2-Methoxyphenyl)methyl-1H-pyrrol-2-yl]-2,4-dioxo-5-hexenoic Acid Ethyl Ester] | > 100 |
| CCOC(=O)C(=O)CC(=O)/C=C/c1cccn1Cc1ccccc1OCC [7o, 6-[1-(2-Ethoxyphenyl)methyl-1H-pyrrol-2-yl]-2,4-dioxo-5-hexenoic Acid Ethyl Ester] | > 100 |
